The values that follow are results of earlier work, collected in publication PMC7702303, “Biochemical and transcript level differences between the three human phosphofructokinases show optimisation of each isoform for specific metabolic niches” (Biochemical Journal, 2020).

One data set relates to PFKM. The settings on record: cited from earlier work; for IC50 / IC50 or AC50 (activator): PFKM; for IC50: read-out: IC50 or AC50 (inhibitor); for KmF6P: PFK-M.
The subject of the next data set is PFKL. The settings on record: cited from earlier work.
A further data set deals with PFK-M (rat heart). Also noted: method as in Moreno-Sanchez et al(10) 2012. The settings on record: tissue supernatant, ATP 550-700M, ref Moreno-Sanchez et al(10) 2012; cited from earlier work.
The test system of a further data set is PFK-P (HeLa cell). Also noted: method as in Moreno-Sanchez et al(10) 2012. The settings on record: tissue supernatant, ATP 550-700M, ref Moreno-Sanchez et al(10) 2012; cited from earlier work.

Structures are written as SMILES. Where two headings read alike, the source gives them in different places.

Consider `O=C(O)CC(O)(CC(=O)O)C(=O)O` [Citrate], for which the IC50 (as a rule, the point on the concentration scale where inhibition reaches its midpoint) was 100 µM in the data set with PFKM (ref Foe and Kemp, 1985); 130 µM in the data set on PFKM (ref Vora 1985); more than 2000 µM in the data set with PFKL (ref Foe and Kemp, 1985, read-out: IC50 or AC50 (inhibitor)); 180 µM with PFKL (ref Vora 1985, read-out: IC50 or AC50 (inhibitor)).

As to `Nc1ncnc2c1ncn2[C@@H]1O[C@H](COP(=O)(O)O)[C@@H](O)[C@H]1O` [AMP], the IC50 or AC50 (activator) is 10 µM in the data set on PFKM (ref Foe and Kemp, 1985); 10 µM in the data set with PFKL (ref Foe and Kemp, 1985).

In the case of `O=C(CO)[C@@H](O)[C@H](O)[C@H](O)COP(=O)(O)O` [F6P, fructose 6-phosphate], the KmF6P with PFKM (partially purified tissue, ATP 1000M, ref Dunaway et al(8) 1988) is 2000 µM; with PFKM (purified tissue, ATP 500M, ref Meienhofer et al(7) 1980) it was 1800 µM; in the data set on PFKM (recombinant (yeast), ATP 5000M, ref Sanchez-Martinez et al(9) 2000) it was 2000 µM; in the data set on PFK-M (rat heart) it was 145 µM; in the data set on PFK-P (HeLa cell), 1100 µM.

For the molecule `O=P(O)(O)OC[C@H]1O[C@@](CO)(OP(=O)(O)O)[C@@H](O)[C@@H]1O` [F26BP, fructose 2,6-bisphosphate], the IC50 or AC50 (activator) in the data set on PFKM (ref Foe and Kemp, 1985) is 0.05 µM; in the data set with PFKM (unit inferred, ref Vora 1985) it was 10 µM; in the data set with PFKL (ref Foe and Kemp, 1985), 0.05 µM; in the data set with PFKL (ref Van Schaftingen et al 1981), 0.04 µM; with PFKL (unit inferred, ref Vora 1985), 100 µM.
